From patent publication US5684151A, “1-arylsulphonyl, arylcarbonyl and 1-arylphosphonyl-3-phenyl-1,4,5,6-tetrahydropyridazines” (priority 1995, dated 1997)

The compounds below were run against T1, progestin receptor from rabbit uterus (Oryctolagus cuniculus, UniProt P06186) (assay: Progestin receptor binding (3H-R5020 displacement)). Details: rabbit uterine cytosol, 4° C., 18 h, read-out: IC50: Binding affinity for the progestin receptor from rabbit uterus.
T1 construct: Cytosolic progestin receptor were obtained by mixing rabbit uterine tissue with a Tris buffer; from tissue; host or cells: rabbit uterus cytosol
T1 sequence (P06186 whole entry): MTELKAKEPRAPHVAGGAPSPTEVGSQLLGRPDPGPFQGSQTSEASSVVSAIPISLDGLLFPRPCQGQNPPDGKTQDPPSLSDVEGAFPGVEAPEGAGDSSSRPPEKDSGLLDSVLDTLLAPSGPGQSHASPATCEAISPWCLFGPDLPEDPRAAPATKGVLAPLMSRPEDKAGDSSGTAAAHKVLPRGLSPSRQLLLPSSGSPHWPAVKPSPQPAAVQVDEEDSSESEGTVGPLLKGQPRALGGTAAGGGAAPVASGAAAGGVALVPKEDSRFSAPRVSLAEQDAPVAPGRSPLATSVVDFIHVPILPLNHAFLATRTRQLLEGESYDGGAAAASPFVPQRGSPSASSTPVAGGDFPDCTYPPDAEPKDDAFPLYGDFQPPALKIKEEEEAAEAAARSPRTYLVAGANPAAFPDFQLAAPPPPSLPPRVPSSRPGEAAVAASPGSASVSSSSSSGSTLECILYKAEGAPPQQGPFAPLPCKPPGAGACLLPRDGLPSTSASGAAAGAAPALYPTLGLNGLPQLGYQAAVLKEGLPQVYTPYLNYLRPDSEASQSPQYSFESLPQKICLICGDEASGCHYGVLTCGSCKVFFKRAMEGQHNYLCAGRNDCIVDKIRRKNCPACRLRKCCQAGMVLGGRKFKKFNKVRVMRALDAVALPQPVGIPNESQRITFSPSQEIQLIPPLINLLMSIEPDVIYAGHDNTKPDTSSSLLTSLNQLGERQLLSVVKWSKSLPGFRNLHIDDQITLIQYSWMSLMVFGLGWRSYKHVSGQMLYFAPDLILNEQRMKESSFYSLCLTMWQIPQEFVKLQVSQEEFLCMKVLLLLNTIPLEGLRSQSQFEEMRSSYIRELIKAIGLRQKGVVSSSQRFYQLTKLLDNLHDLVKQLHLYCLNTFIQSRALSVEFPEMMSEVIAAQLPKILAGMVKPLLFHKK
Procedure: A progestin initiates a biological response by first binding to a progestin receptor. Affinity for progestin receptors was determined by measuring the ability of compounds to displace a progestin radioligand from those receptors in vitro. Cytosolic progestin receptor were obtained by mixing rabbit uterine tissue with a Tris buffer [0.1M Tris-Hcl, 1 mM Na2 EDTA, 1 mM dithiothreotol, 1 mM sodium molybdate, 1% glycerol, pH 7.4]. The tissue/buffer mixture was homogenized under ice-cold conditions. The homogenate was then centrifuged and the supernatant (cytosol preparation) was decanted and stored at -70° C. and thawed prior to use. The competitive binding assay was performed by mixing ^3 H-R5020, a progestin radioligand, with cytosol preparation and various concentrations of test compounds (prepared in DMSO with a final 5% DMSO concentration). This mixture was then incubated at 4° C. for about 18 hours. Non-specific binding was determined using an unlabelled ligand in excess. After the incubation period, the radioligand bound to receptor was separated from free radioligand using dextran-coated charcoal. The amount of bound radioligand was then determined by liquid scintillation counting. The data were expressed as the concentration of test compound that displaced 50% of the radioligand from the receptor (IC50)
Aspects of the application used in this procedure are described in the following: J. L. McGuire et al., Biochemistry 13, 319, 1974.
For O=S(=O)(c1cc(Cl)c(Cl)cc1Cl)N1CCCC(c2ccc(Cl)c(Cl)c2)=N1 [Compound 107], the IC50 was 7.45 nM. Compound CCCCc1ccc(S(=O)(=O)N2CCCC(c3ccc(Cl)c(Cl)c3)=N2)cc1 [Compound 108] has an IC50 of 3.35 nM. For O=S(=O)(c1ccc2c(c1)CCCC2)N1CCCC(c2ccc(Cl)c(Cl)c2)=N1 [Compound 114], the IC50 was 6.5 nM. In the case of CCCCc1ccc(S(=O)(=O)N2CCCC(c3ccc(Cl)c(C(F)(F)F)c3)=N2)cc1 [Compound 116], the IC50 is reported as 8.77 nM. With O=S(=O)(c1ccc(Cl)cc1)N1CCCC(c2ccc3ccccc3c2)=N1 [Compound 117] the IC50 was 4.97 nM. O=S(=O)(c1cc(Cl)ccc1Cl)N1CCCC(c2ccc3ccccc3c2)=N1 [Compound 118] gave an IC50 of 5.56 nM. In the case of O=S(=O)(c1cc(Cl)ccc1Cl)N1CCCC(c2ccc3c(c2)OCCO3)=N1 [Compound 123], the IC50 is reported as 557 nM. Compound O=S(=O)(c1cccc(C(F)(F)F)c1)N1CCCC(c2ccc(Cl)c(C(F)(F)F)c2)=N1 [Compound 126] has an IC50 of 7.14 nM. O=[N+]([O-])c1cccc(S(=O)(=O)N2CCCC(c3ccc(Cl)c(C(F)(F)F)c3)=N2)c1 [Compound 127] gave an IC50 of 4.04 nM. O=[N+]([O-])c1ccc(S(=O)(=O)N2CCCC(c3ccc(Cl)c(C(F)(F)F)c3)=N2)cc1 [Compound 128] showed an IC50 of 14.2 nM. With O=S(=O)(c1ccc(C(F)(F)F)cc1)N1CCCC(c2ccc3ccccc3c2)=N1 [Compound 129] the IC50 was 4.94 nM. Compound O=S(=O)(c1cccc(C(F)(F)F)c1)N1CCCC(c2ccc3ccccc3c2)=N1 [Compound 130] has an IC50 of 2.31 nM. For O=S(=O)(c1ccccc1)N1CCCC(c2ccc3ccccc3c2)=N1 [Compound 131], the IC50 was 17.4 nM. Work on O=S(=O)(c1ccc2ccccc2c1)N1CCCC(c2ccc3ccccc3c2)=N1 [Compound 132] yielded an IC50 of 7.5 nM. In the case of COC(=O)CCCOc1ccc(Br)cc1S(=O)(=O)N1CCCC(c2ccc(Cl)c(Cl)c2)=N1 [Compound 136, 3-(3,4-dichlorophenyl)-1-(2-(3-carbomethoxypropxy)-5-bromobenzenesulphonyl)-1,4,5,6-tetrahydropyridazine], the IC50 is reported as 70 nM. For CN1C(=O)CSc2cc(C3=NN(S(=O)(=O)c4ccc(I)cc4)CCC3)ccc21 [Compound 138], the IC50 was 341 nM. CC1CC(c2ccccc2)=NN(S(=O)(=O)c2cccc(C(F)(F)F)c2)C1 (stereo not drawn) [Compound 141] was tested, and the IC50 was 396 nM. CC1CC(c2ccccc2)=NN(S(=O)(=O)c2ccc(Br)cc2)C1 (stereo not drawn) [Compound 142] gave an IC50 of 1620 nM. For Cc1ccc(S(=O)(=O)N2CC(C)CC(c3ccccc3)=N2)cc1 (stereo not drawn) [Compound 143], the IC50 was 1380 nM. For O=S(=O)(c1ccc(I)cc1)N1CCCC(c2ccc3c(c2)oc2ccccc23)=N1 [Compound 145, 3-(Dibenzofuran-3-yl)-1-(4-iodobenzenesulfonyl)-1,4,5,6-tetrahydropyradazine], the IC50 was 100 nM. For Cc1ccc(C(=O)N2CCCC(c3ccc(Cl)cc3)=N2)cc1 [Compound 146, 1-(4-Methylbenzoyl)-3-(4-chlorophenyl)-1,4,5,6-tetrahydropyridazine], the IC50 was 1000 nM. Work on O=S(=O)(c1ccc(I)cc1)N1N=C(c2ccc(Cl)cc2)CC2CC=CC21 (stereo not drawn) [Compound 160, 3-(4-Chlorophenyl)-1-(4-iodobenzenesulfonyl)-4,4a,5,7a-tetrahydro-1H-cyclopenta[c]pyridiazine] yielded an IC50 of 32 nM. For O=S(=O)(c1ccc(I)cc1)N1CCC(Br)(Br)C(c2ccc(Cl)c(C(F)(F)F)c2)=N1 [Compound 162, 4,4-Dibromo-3-(4-chloro-3-trifluoromethylphenyl)-1-(4-iodobenzenesulfonyl)-1,4,5,6-tetrahydropyridazine], the IC50 was 3 nM. Cc1ccc(/C=C/S(=O)(=O)N2CCCC(c3ccc4ccccc4c3)=N2)cc1 [Compound 175] gave an IC50 of 6.2 nM. Work on O=S(=O)(/C=C/c1ccc2ccccc2c1)N1CCCC(c2ccc(Cl)c(C(F)(F)F)c2)=N1 [Compound 177] yielded an IC50 of 528 nM. Work on CN(C)c1ccc(C2=NN(S(=O)(=O)c3ccc(I)cc3)CCC2)cc1 [Compound 209, 1-(4-Iodobenzenesulfonyl)-3-(4-dimethylaminophenyl)-1,4,5,6-tetrahydropyridazine] yielded an IC50 of 117 nM. Compound CN(C)c1ccc(C2=NN(S(=O)(=O)c3ccc(Br)cc3)CCC2)cc1 [Compound 213] has an IC50 of 326 nM. O=[N+]([O-])c1ccc(C(=S)N2CCCC(c3ccc(Cl)c(Cl)c3)=N2)cc1 [Compound 242] showed an IC50 of 12 nM. Compound Fc1ccc(C(=S)N2CCCC(c3ccc(Cl)c(Cl)c3)=N2)cc1Br [Compound 246] has an IC50 of 114 nM. Work on O=S(=O)(c1ccc(C(F)(F)C(F)(F)F)cc1)N1CCCC(c2ccc(Cl)c(Cl)c2)=N1 [Compound 272, 3-(3,4-Dichlorophenyl)-1-(4-pentafluoroethylbenzenesulfonyl)-1,4,5,6-tetrahydropyridazine] yielded an IC50 of 329 nM. COC(=O)c1ccc(S(=O)(=O)N2CCCC(c3ccc(Cl)c(Cl)c3)=N2)cc1 [Compound 273, 3-(3,4-Dichlorophenyl)-1-(4-carbomethoxybenzesulfonyl)-1,4,5,6-tetrahydropyridazine] gave an IC50 of 3.4 nM. Nc1ccc(S(=O)(=O)N2CCCC(c3ccc(Cl)c(Cl)c3)=N2)cc1 [Compound 274, 1-(4-Aminobenzenesulfonyl)-3-(3,4-dichlorophenyl)-1,4,5,6-tetrahydropyridazine] showed an IC50 of 204 nM. O=S(=O)(/C=C/c1ccccc1)N1CCCC(c2ccc(Cl)c(C(F)(F)F)c2)=N1 [Compound 276] showed an IC50 of 53.9 nM.
